Each structure is given as a SMILES string.

In general, melting point refers to the temperature of the solid-liquid transition. In turn, `CC(=S)NC[C@H]1CN(c2ccc3c(c2)C[C@@H](C)N3C=O)C(=O)O1` returned a melting point of 95 to 96 °C.

`CC(C)(C)c1ccc(Cn2c(-c3ccc4c(c3)OCO4)nc3ccccc32)cc1`: the melting point lay in the range of 142 to 144 °C.

Molecule `OCc1cccc(-c2csc(-c3cn([C@H]4CN5CCC4CC5)nn3)c2)c1` returned a melting point of 211 °C. The result for `Cc1ccc([C@@H](O)C=CC(C)(C)C)cc1` reads 38 to 40 °C; that for `CNC(=O)n1cc(Br)cnc1=O`, 236 to 238 °C; that for `CN(C)C(=N[N+](=O)[O-])NCc1ccc(Cl)nc1`, 160 to 162 °C. The result for `N=C(N)c1ccc(N2CCN(c3ccc(S(=O)(=O)CC(=O)O)cc3)C2=O)cc1` reads over 260 °C; that for `CCCN(CCC)Cc1nnc(-c2ncn3c2CN(C)C(=O)c2c(Cl)cccc2-3)o1`, 188 to 195 °C; that for `FC(F)(F)c1cc(Nc2cc[nH]n2)nc(-c2cccnc2)n1`, 230 °C. The result for `CCC(OC(C)=O)c1ccc(C(OC(C)=O)C(C)(C)C)cc1` (stereo unspecified) reads 64 to 65 °C; that for `CCCCCCCCCCCCOc1ccc(C(=O)Oc2ccc(C(=O)OC3CCC(CCC)(CCC)OC3=O)cc2)cc1` (stereo unspecified), 91 °C. With `Cc1nn(C)c2nc(N(CC3CCC3)CC3CC3)c(CN(Cc3cc(C(F)(F)F)cc(C(F)(F)F)c3)c3nnn(C)n3)cc12`, the melting point is 84 to 85 °C. The result for `CC(N)=CC(=O)OCC1CC1` reads 55 to 58 °C.

Take `CC(C)OC(=O)C=Cc1ccc(Br)cc1`: the melting point fell in the range of 64 to 66 °C. The result for `Cc1ccc2ccccc2c1N(C(=O)CO)C1CCOC1=O` (stereo unspecified) reads 191 to 195 °C; that for `COc1ccc(CCN2CCN(c3cccccc3=O)CC2)cc1OC`, 83 to 85 °C; that for `O=c1[nH]c2ccccc2c(=O)cc1Nc1ccccc1`, 227 to 228 °C.

Molecule `Nc1ccc(CN2CCSC2)cc1` showed a melting point of 73 to 74 °C. The result for `CCOC(=O)c1cccc(-c2nc(-c3ccc(C)c(C)c3)cs2)c1` reads 114 to 115 °C. Under `O=C(O)Cc1cc([N+](=O)[O-])ccc1C(=O)O` stands 180 to 182 °C; under `CCOC(=O)CN1CCN(CCOc2cc3c(Nc4cccc(Br)c4)ncnc3cc2OC)CC1`, 155 °C; under `CCc1cccc(C)c1CNc1nc(C(=O)O)cc2c1nc(C)n2C`, 233 to 236 °C. The result for `CC(=O)CCc1nc2ccc3c(c2o1)C(CCNC(C)=O)CC3` (stereo unspecified) reads 111 to 112 °C; that for `O=C(NCCC1CCCCC1)c1c(Cl)ccc2nc(N3CCC(C(=O)O)CC3)ccc12`, 253 to 256 °C; that for `CC1(C)C(=O)C(C(=O)c2ccc(C(F)(F)F)nc2CBr)=C(Cl)C(C)(C)C1=O`, 94.5 to 95 °C. The molecule `CCOC(=O)Cc1ccc(NC(=O)C(NS(=O)(=O)c2ccc(Cl)cc2)C(C)C)cc1` (racemic) registered a melting point of 100 to 102 °C.

On to `CNC(Cc1ccc2c(c1)Nc1nccnc1S2)=NC#N`, for which the melting point lay within 233 to 234 °C. The result for `O=C(NCc1ccccc1)Nc1cc(N2CC(c3ccccc3)CC2=O)ccn1` (stereo unspecified) reads 165 to 166 °C; that for `CC(=O)c1ccc2c(c1)NC(NC(C)C)=NS2(=O)=O`, 305 to 308 °C; that for `C=C(C)C=NNC1=NS(=O)(=O)c2ccccc21`, 224 °C.

Take `Cc1noc(-c2ccc(F)cc2N)n1`: the melting point fell in the range of 146 to 148 °C. The result for `Cc1ccc2[nH]c(C)c(-c3ccc(F)cc3)c2c1` reads 124 to 128 °C; that for `CSc1ccc(C(O)c2ccccc2)cc1` (stereo unspecified), 92 to 93.5 °C. The result for `COc1ccc(C(=O)[C@H]2CC=CC[C@H]2C(=O)O)cc1OC1CCCC1` (relative stereo) reads 114 to 115 °C; that for `CCn1nc(C#N)c(Nc2ccc(F)cc2[N+](=O)[O-])n1`, 115 to 116 °C. Under `CC(C)NC(=O)Nc1ccc(Oc2ccc3sncc3c2)c(C(F)(F)F)c1` stands 158 °C.

The values are drawn from a melting point compilation (Tetko et al.; mined from patent text by program, amines drawn as free bases though some values may be those of a salt).
